Results on one substance are retold here after US10732172B1, “Methods, systems, and compositions for determining blood clot formation, and uses thereof” (President and Fellows of Harvard College, priority 2015, dated 2020).

“Also recorded” adds a separate entry of the source.

The test system of one experiment is HUVECs and platelets. The experiment is described as follows: Platelet adhesion and dynamics on TNF-α stimulated endothelium (living or fixed), whole blood perfusion. The experiment is classed as cell-based, human. Particulars: TNF-α 5 ng/ml before fixation; kept 1 day or 5 days; versus no TNF-α.
For the next experiment, the system named is HUVECs. Briefly: Immunostaining of TNF-α stimulated endothelium in microchannel. The experiment is classed as cell-based, human. The procedure:
The microfluidic devices are left overnight at 37° C. in a 5% carbon dioxide (“CO2”) incubator, after which they are rinsed with Endothelial Growth Medium-2 (“EGM-2”) from Lonza. Human Umbilical Vein Endothelial Cells (“HUVEC”) from a mixed donor, by Lonza, are kept in culture and suspended at 12.5 million cells/milliliter (“mL”) in EGM-2, after confluence. The suspension is introduced into the collagen-coated microchannels, after which the microfluidic devices are incubated upside down for 20 minutes. A fresh HUVEC suspension is then introduced in the microchannels, after which the microfluidic devices are incubated for eight hours to promote cell attachment across the channel. The microchannels are, then, rinsed with EGM-2, sometimes containing a freshly prepared solution of tumor necrosis factor (“TNF-α”), which is a recombinant from E. coli from Sigma. Antibodies against intercellular adhesion molecule-1 (“ICAM-1”) and vascular adhesion molecule-1 (“VCAM-1”), tissue factor (from Santa Cruz), VWF (from Abcam) and VE-Cadherin (from Santa Cruz) were perfused into the microfluidic devices after fixing the endothelium with 2% paraformaldehyde for ten minutes, incubating the endothelium for three hours, and counterstaining with a secondary fluorescent IgG antibody for three hours.
Multiple endothelial adhesion molecules are involved in the recruitment of blood cells and platelets in thrombosis in vivo. In previous studies, treatment of a living endothelium cultured in microfluidic channels with TNF-α results in an increase in expression of surface adhesion molecules, such as ICAM-1 and VCAM-1 within four hours after addition. To explore whether a fixed endothelium retains expression of these and other surface molecules that could potentially exacerbate thrombosis, the endothelium is first activated in the device by adding increasing doses of TNF-α, e.g., 0, 5, and 100 nanograms/millliter (“ng/ml”), for approximately 18 hours. The endothelium cells are fixed with 4% paraformaldehyde in phosphate-buffered saline (“PBS”) for 15 minutes at room temperature, are rinsed three times with PBS, and, then, stored in PBS at 4° C. in a humid environment.
Human umbilical vein endothelial cells (HUVECs, Lonza) were cultured in Endothelial Growth Medium-2 (EGM-2, Lonza) and used between passages 3 and 7. Before seeding HUVECs in the devices, the microchannels were pre-treated with 1% (3-aminopropyl)-trimethoxysilane in phosphate-buffered saline (PBS) for 10 min, flushed sequentially with 70% ethanol in water and 100% ethanol, and then incubated at 80° C. for two hours before rat tail collagen I (100 μg/ml in PBS; BD Biosciences) was introduced in the channels. Some of the devices were used with the collagen coating alone (without cells) after incubation overnight at 37° C. and flushing of the channels with EGM-2. In other studies for comparison, HUVECs (12.5×10^6 cells/ml) were introduced into the collagen-coated channels and incubated for 20 min at 37° C. to promote cell attachment before a second similar HUVEC suspension was then introduced and the devices were incubated upside down for an additional 20 min to seed the cells on the ceiling and walls of the microfluidic channels. Channels were then flushed with EGM-2 and the devices were incubated at 37° C. under 5% CO2 for 24 hours to promote HUVEC monolayer formation on all exposed surfaces of the microchannel. In some cases, the medium was supplemented with one or more inflammatory cytokines (e.g., 5 or 100 ng/ml TNF-α (Sigma)) to activate the HUVEC monolayer. Fluorescence microscopy was performed on endothelium that was fixed with 4% formaldehyde (Sigma) and stained with antibodies against TF (Santa Cruz), vWF (Abeam), VE-Cadherin (Santa Cruz), followed by counterstaining with phalloidin and DAPI (Invitrogen).

Where [1] appears, read: TNF-α before fixation, versus untreated.

Consider tumor necrosis factor-α [TNF-α], for which the “platelet adhesion rate on fixed HUVECs” value with HUVECs and platelets is “significantly higher”. Also, the “ICAM-1 expression on living endothelium” value in the experiment on HUVECs (HUVECs stimulated with various doses of TNF-α) is listed as “increased with increase in TNF concentration; also recorded: dose-dependent activation of ICAM-1; also recorded: dose-dependent surface expression of adhesion molecule ICAM-1; also recorded: increased in a dose-dependent manner”. In addition, in the experiment with HUVECs (HUVECs, TNF-α 5 or 100 ng/ml), the “tissue factor (TF) expression on living endothelium” value is recorded as “increase in the endothelial expression” and the “von Willebrand Factor (vWF) expression on living endothelium” value is recorded as “increase in the endothelial expression”. The “VCAM-1 immunofluorescence on fixed endothelium” value with HUVECs (TNF-α 0, 5, 100 ng/ml for about 18 hours before fixation) is listed as “dose-dependent increase”. Further, the “ICAM-1 immunofluorescence on fixed endothelium” value in the experiment with HUVECs (TNF-α 0, 5, 100 ng/ml for about 18 hours before fixation, normalized to untreated) is on record as “dose-dependent increase”. In the experiment with HUVECs (setting [1]), the “VWF immunofluorescence on fixed endothelium” value is listed as “dose-dependent increase; also recorded: higher levels” and the “tissue factor immunofluorescence on fixed endothelium” value is listed as “dose-dependent increase; also recorded: higher levels”.
